In this assay the test system is human colon cancer cell line HT29. As to the kind of experiment: Inhibition of cell proliferation (GI50) in HT29 cells. The format is cell-based. The following applies: HT-29, Table III, 48 h. As to the method: Human breast cancer cell lines T-47D, MX-1 and MDAMB435, human colon cancer cell line HT29, and human lung cancer cell line H1299 were grown and harvested as in Example 75. An aliquot of […] of cells (4.4×10^4 cells/mL) was added to a well of a 96-well microtiter plate containing 5 μL of a 10% DMSO in RPMI-1640 media solution containing 10 nM to 100 μM of N-(2,5-dimethoxyphenyl)-2-methylthieno[3,2-d]pyrimidin-4-amine (1 nM to 10 μM final). An aliquot of 45 μL of cells was added to a well of a 96-well microtiter plate containing 5 μL of a 10% DMSO in RPMI-1640 media solution without compound as the control sample for maximal cell proliferation (Lmax). The samples were mixed by agitation and then incubated at 37° C. for 48 h in a 5% CO2-95% humidity incubator. After incubation, the samples were removed from the incubator and 25 μL of CellTiter-Glo™ reagent (Promega) was added. The samples were mixed by agitation and incubated at room temperature for 10-15 min. Plates were then read using a luminescent plate reader (Model SPECTRAfluor Plus, Tecan) to give Ltest values.
Baseline for GI50 (dose for 50% inhibition of cell proliferation) of initial cell numbers was determined by adding an aliquot of 45 μL of cells or 45 μL of media, respectively, to wells of a 96-well microtiter plate containing 5 μL of a 10% DMSO in RPMI-1640 media solution. The samples were mixed by agitation and then incubated at 37° C. for 0.5 h in a 5% CO2-95% humidity incubator. After incubation, the samples were removed from the incubator and 25 μL of CellTiter-Glo™ reagent (Promega) was added. The samples were mixed by agitation and incubated at 37° C. for 10-15 min at room temperature in a 5% CO2-95% humidity incubator. Fluorescence was read as above, (LStart) defining luminescence for initial cell number used as baseline in GI50 determinations.
GI50 (dose for 50% inhibition of cell proliferation) is the concentration where [(LTest−Lstart)/(LMax−Lstart)]=0.5.

`COc1ccc(OC)c(Nc2ncnc3ccsc23)c1` [Example 2, N-(2,5-Dimethoxyphenyl)thieno[3,2-d]pyrimidin-4-amine] registered a GI50 of 3.63 µM. This counts as single-digit micromolar.

The GI50 is the concentration that inhibits growth by half. Read a high GI50 as lower sensitivity of the cells.

These data come from patent US20070099877A1, “N-aryl-thienopyrimidin-4-amines and analogs as activators of caspases and inducers of apoptosis and the use thereof” (Cytovia, Inc., priority 2005, published 2007).
